Assay results from patent US20250129069A1, “TRIAZOLO WRN INHIBITORS” (Nimbus Wadjet, Inc., priority 2023, published 2025).
Read-outs that look alike come from different tables or passages of the source.

Key:
[1] = system: p21 induction in HCT 116 cells; assay: p21 induction in cells (In-Cell Western, p21/GAPDH ratio); type: cell-based; conditions: 24 h compound incubation, read-out: p21_EC50
Summary of the method: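 EC50 values come from nonlinear fits of percent activation, defined by the 800/700 nm p21-to-GAPDH ratio scaled between DMSO (low) and internal WRN inhibitor (high) controls. In-Cell Western read after 24 h compound exposure of HCT 116 cells at 37° C. Duplicate 11-point series, 2-fold steps, usually starting at 10 μM.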

[2] = target: human Werner helicase (WRN, amino acids 517-1235 with L1074F point mutation) (Homo sapiens (Human), UniProt Q14191, L1074F); assay: WRN (BV08) ADP-Glo assay; type: biochemical; conditions: human WRN (aa 517-1235, L1074F), read-out: ADP-Glo_hWRN_IC50
Chain of human Werner helicase (WRN, amino acids 517-1235 with L1074F point mutation) (Q14191 other isoform, or with tags, fused parts or gaps L1074F (already in the parent)): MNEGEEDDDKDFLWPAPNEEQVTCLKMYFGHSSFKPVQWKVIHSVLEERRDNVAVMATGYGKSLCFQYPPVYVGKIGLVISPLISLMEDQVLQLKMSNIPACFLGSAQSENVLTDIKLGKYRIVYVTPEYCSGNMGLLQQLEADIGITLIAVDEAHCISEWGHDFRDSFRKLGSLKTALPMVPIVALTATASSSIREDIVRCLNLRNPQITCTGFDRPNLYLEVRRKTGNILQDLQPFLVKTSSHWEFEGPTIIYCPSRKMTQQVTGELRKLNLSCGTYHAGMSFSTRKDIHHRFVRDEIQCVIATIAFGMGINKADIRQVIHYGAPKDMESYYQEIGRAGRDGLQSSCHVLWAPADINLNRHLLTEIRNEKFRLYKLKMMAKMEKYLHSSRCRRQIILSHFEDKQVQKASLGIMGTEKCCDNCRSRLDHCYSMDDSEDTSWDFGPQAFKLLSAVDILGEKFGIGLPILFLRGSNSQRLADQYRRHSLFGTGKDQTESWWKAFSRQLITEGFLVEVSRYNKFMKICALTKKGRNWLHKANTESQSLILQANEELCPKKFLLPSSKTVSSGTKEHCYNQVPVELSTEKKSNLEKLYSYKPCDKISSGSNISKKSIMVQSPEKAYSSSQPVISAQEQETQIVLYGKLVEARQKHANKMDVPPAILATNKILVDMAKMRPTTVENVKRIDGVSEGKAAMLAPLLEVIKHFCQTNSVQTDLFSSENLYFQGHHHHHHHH
Summary of the method: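 ADP-Glo luminescence read after 60 min, 25 °C reaction of 0.15 nM WRN (517-1235, L1074F, Sf9-expressed, tag removed) with 0.1 nM DNA duplex and 5 μM ATP, following 15 min compound preincubation; 20 mM Bicine pH 7.5, 1% DMSO. IC50 from 3- or 4-parameter fit of % inhibition.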

EC50 ([1]; Homo sapiens) | IC50 [2] | EC50 [1] | SMILES
500 to 2000 nM | 5 to 50 nM | – | CCc1c(N2CCN(C(=O)c3ncccc3OC)[C@H]3CC[C@@H]32)c(=O)c2nn(C3=CCOCC3)nc2n1CC(=O)NC12CC(C(C)C)(C1)C2 [Compound I-204, 2-[2-(3,6-dihydro-2H-pyran-4-yl)-5-ethyl-6-[(1S,6S)-5-(3-methoxypyridine-2-carbonyl)-2,5-diazabicyclo[4.2.0]octan-2-yl]-7-oxo-2H,4H,7H-[1,2,3]triazolo[4,5-b]pyridin-4-yl]-N-[3-(propan-2-yl)bicyclo[1.1.1]pentan-1-yl]acetamide]
≤ 500 nM | ≤ 5 nM | – | CCc1c(N2CCN(C(=O)c3nocc3O)[C@H]3CC[C@@H]32)c(=O)c2nn(C3=CCOCC3)nc2n1CC(=O)NC12CC(C(C)C)(C1)C2 [Compound I-171, 2-[2-(3,6-dihydro-2H-pyran-4-yl)-5-ethyl-6-[(1S,6S)-5-(4-hydroxy-1,2-oxazole-3-carbonyl)-2,5-diazabicyclo[4.2.0]octan-2-yl]-7-oxo-2H,4H,7H-[1,2,3]triazolo[4,5-b]pyridin-4-yl]-N-[3-(propan-2-yl)bicyclo[1.1.1]pentan-1-yl]acetamide]
≤ 500 nM | ≤ 5 nM | – | CCc1c(N2CCN(C(=O)c3ncnc(C)c3O)[C@H]3CC[C@@H]32)c(=O)c2nn(-c3cnn(C4CC4)c3)nc2n1CC(=O)Nc1ccc(C(F)(F)F)cc1Cl [Compound I-57, N-[2-chloro-4-(trifluoromethyl)phenyl]-2-[2-(1-cyclopropyl-1H-pyrazol-4-yl)-5-ethyl-6-[(1S,6S)-5-(5-hydroxy-6-methylpyrimidine-4-carbonyl)-2,5-diazabicyclo[4.2.0]octan-2-yl]-7-oxo-2H,4H,7H-[1,2,3]triazolo[4,5-b]pyridin-4-yl]acetamide]
≤ 500 nM | 5 to 50 nM | – | CCc1c(N2CCN(C(=O)c3c(OC)ncc(C)c3O)[C@H]3CC[C@@H]32)c(=O)c2nn(-c3ccnc(C)c3)nc2n1CC(=O)NC12CC(C(C)C)(C1)C2 [Compound I-94, 2-{5-ethyl-6-[(1S,6S)-5-(4-hydroxy-2-methoxy-5-methylpyridine-3-carbonyl)-2,5-diazabicyclo[4.2.0]octan-2-yl]-2-(2-methylpyridin-4-yl)-7-oxo-2H,4H,7H-[1,2,3]triazolo[4,5-b]pyridin-4-yl}-N-[3-(propan-2-yl)bicyclo[1.1.1]pentan-1-yl]acetamide]
≤ 500 nM | 5 to 50 nM | – | CCc1c(N2CCN(C(=O)c3ncnc(C)c3O)[C@H]3CC[C@@H]32)c(=O)c2nn(-c3ccnc(OC)c3)nc2n1CC(=O)NC1CC2(CCC2)C1 [Compound I-21, 2-(5-ethyl-6-((1S,6S)-5-(5-hydroxy-6-methylpyrimidine-4-carbonyl)-2,5-diazabicyclo[4.2.0]octan-2-yl)-2-(2-methoxypyridin-4-yl)-7-oxo-2,7-dihydro-4H-[1,2,3]triazolo[4,5-b]pyridin-4-yl)-N-(spiro[3.3]heptan-2-yl)acetamide]
2000 to 5000 nM | 5 to 50 nM | – | CCc1c(C2=C(C)CN(C(=O)c3ncnc(C)c3O)CC2)c(=O)c2nn(-c3ccnc(OC)c3)nc2n1CC(=O)NC12CC(C(C)C)(C1)C2 [Compound I-78, 2-{5-ethyl-6-[1-(5-hydroxy-6-methylpyrimidine-4-carbonyl)-5-methyl-1,2,3,6-tetrahydropyridin-4-yl]-2-(2-methoxypyridin-4-yl)-7-oxo-2H,4H,7H-[1,2,3]triazolo[4,5-b]pyridin-4-yl}-N-[3-(propan-2-yl)bicyclo[1.1.1]pentan-1-yl]acetamide]
> 5000 nM | 5 to 50 nM | – | CCc1c(N2CCN(C(=O)c3cccc4ccoc34)[C@H]3CC[C@@H]32)c(=O)c2nn(-c3ccnc(OC)c3)nc2n1CC(=O)Nc1ccc(C(F)(F)F)cc1Cl [Compound I-119, 2-{6-[(1S,6S)-5-(1-benzofuran-7-carbonyl)-2,5-diazabicyclo[4.2.0]octan-2-yl]-5-ethyl-2-(2-methoxypyridin-4-yl)-7-oxo-2H,4H,7H-[1,2,3]triazolo[4,5-b]pyridin-4-yl}-N-[2-chloro-4-(trifluoromethyl)phenyl]acetamide]
≤ 500 nM | 5 to 50 nM | – | CCc1c(N2CCN(C(=O)c3c(O)ccc4ncoc34)CC2)c(=O)c2nn(C3CC3)nc2n1CC(=O)Nc1ccc(C(F)(F)F)cc1Cl [Compound I-133, N-[2-chloro-4-(trifluoromethyl)phenyl]-2-{2-cyclopropyl-5-ethyl-6-[4-(6-hydroxy-1,3-benzoxazole-7-carbonyl)piperazin-1-yl]-7-oxo-2H,4H,7H-[1,2,3]triazolo[4,5-b]pyridin-4-yl}acetamide]
≤ 500 nM | 5 to 50 nM | – | CCc1c(N2CCN(C(=O)c3c(OC)ncc(C)c3O)[C@H]3CC[C@@H]32)c(=O)c2nn(-c3ccnc(OC)c3)nc2n1CC(=O)NC12CC(C(C)C)(C1)C2 [Compound I-116, 2-{5-ethyl-6-[(1S,6S)-5-(4-hydroxy-2-methoxy-5-methylpyridine-3-carbonyl)-2,5-diazabicyclo[4.2.0]octan-2-yl]-2-(2-methoxypyridin-4-yl)-7-oxo-2H,4H,7H-[1,2,3]triazolo[4,5-b]pyridin-4-yl}-N-[3-(propan-2-yl)bicyclo[1.1.1]pentan-1-yl]acetamide]
2000 to 5000 nM | 5 to 50 nM | – | CCc1c(N2CCN(C(=O)c3ncnc(C)c3O)[C@H]3CC[C@@H]32)c(=O)c2nn(-c3ccnc(OC)c3)nc2n1CC(=O)NC1CC2(C1)CC(C)(C)C2 [Compound I-72, N-{6,6-dimethylspiro[3.3]heptan-2-yl}-2-{5-ethyl-6-[(1S,6S)-5-(5-hydroxy-6-methylpyrimidine-4-carbonyl)-2,5-diazabicyclo[4.2.0]octan-2-yl]-2-(2-methoxypyridin-4-yl)-7-oxo-2H,4H,7H-[1,2,3]triazolo[4,5-b]pyridin-4-yl}acetamide]
2000 to 5000 nM | 5 to 50 nM | – | CCc1c(N2CCN(C(=O)c3ncnc(C)c3O)[C@H]3CC[C@@H]32)c(=O)c2nn(C3CC4(COC4)C3)nc2n1CC(=O)NC12CC(C(C)C)(C1)C2 [Compound I-160, 2-{5-ethyl-6-[(1S,6S)-5-(5-hydroxy-6-methylpyrimidine-4-carbonyl)-2,5-diazabicyclo[4.2.0]octan-2-yl]-2-{2-oxaspiro[3.3]heptan-6-yl}-7-oxo-2H,4H,7H-[1,2,3]triazolo[4,5-b]pyridin-4-yl}-N-[3-(propan-2-yl)bicyclo[1.1.1]pentan-1-yl]acetamide]
≤ 500 nM | ≤ 5 nM | – | CCc1c(N2CCN(C(=O)c3ncnc(C)c3O)[C@H]3CC[C@@H]32)c(=O)c2nn(C3=CCOCC3)nc2n1CC(=O)Nc1ccc(C(F)(F)F)cc1Cl [Compound I-20, N-(2-chloro-4-(trifluoromethyl)phenyl)-2-(2-(3,6-dihydro-2H-pyran-4-yl)-5-ethyl-6-((1S,6S)-5-(5-hydroxy-6-methylpyrimidine-4-carbonyl)-2,5-diazabicyclo[4.2.0]octan-2-yl)-7-oxo-2,7-dihydro-4H-[1,2,3]triazolo[4,5-b]pyridin-4-yl)acetamide]
≤ 500 nM | ≤ 5 nM | – | CCc1c(N2CCN(C(=O)c3ncnc(C)c3O)CC2)c(=O)c2nn(-c3ccccn3)nc2n1CC(=O)Nc1ccc(C(F)(F)F)cc1Cl [Compound I-127, N-[2-chloro-4-(trifluoromethyl)phenyl]-2-{5-ethyl-6-[4-(5-hydroxy-6-methylpyrimidine-4-carbonyl)piperazin-1-yl]-7-oxo-2-(pyridin-2-yl)-2H,4H,7H-[1,2,3]triazolo[4,5-b]pyridin-4-yl}acetamide]
– | ≤ 5 nM | ≤ 500 nM | CCc1c(N2CCN(C(=O)c3ncnc(C)c3O)[C@H]3CC[C@@H]32)c(=O)c2nn(-c3ccnc(C)c3)nc2n1CC(=O)Nc1ccc(C(F)(F)F)cc1Cl [Compound I-96, N-[2-chloro-4-(trifluoromethyl)phenyl]-2-{5-ethyl-6-[(1S,6S)-5-(5-hydroxy-6-methylpyrimidine-4-carbonyl)-2,5-diazabicyclo[4.2.0]octan-2-yl]-2-(2-methylpyridin-4-yl)-7-oxo-2H,4H,7H-[1,2,3]triazolo[4,5-b]pyridin-4-yl}acetamide]
– | 5 to 50 nM | ≤ 500 nM | CCc1c(N2CCN(C(=O)c3ncnc(C)c3O)[C@H]3CC[C@@H]32)c(=O)c2nn(-c3ccccn3)nc2n1CC(=O)NC12CC(C(C)C)(C1)C2 [Compound I-90, 2-{5-ethyl-6-[(1S,6S)-5-(5-hydroxy-6-methylpyrimidine-4-carbonyl)-2,5-diazabicyclo[4.2.0]octan-2-yl]-7-oxo-2-(pyridin-2-yl)-2H,4H,7H-[1,2,3]triazolo[4,5-b]pyridin-4-yl}-N-[3-(propan-2-yl)bicyclo[1.1.1]pentan-1-yl]acetamide]
≤ 500 nM | ≤ 5 nM | – | CCc1c(N2CCN(C(=O)c3c(OC)ncc(F)c3O)[C@H]3CC[C@@H]32)c(=O)c2nn(-c3ccnc(OC)c3)nc2n1CC(=O)NC12CC(C(C)C)(C1)C2 [Compound I-177, 2-{5-ethyl-6-[(1S,6S)-5-(5-fluoro-4-hydroxy-2-methoxypyridine-3-carbonyl)-2,5-diazabicyclo[4.2.0]octan-2-yl]-2-(2-methoxypyridin-4-yl)-7-oxo-2H,4H,7H-[1,2,3]triazolo[4,5-b]pyridin-4-yl}-N-[3-(propan-2-yl)bicyclo[1.1.1]pentan-1-yl]acetamide]
